The subject of assay [1] is Heliothis virescens (Tobacco Budworm). Kind of assay: Heliothis virescens egg/larval mortality on artificial diet, 24-well microtiter plate. The assay is classed as in vivo. The note with it: 4 days. The method, then:
Heliothis virescens (Tobacco Budworm)
Eggs (0-24 h old) are placed in 24-well microtiter plate on artificial diet and treated with test solutions (DMSO) by pipetting. After an incubation period of 4 days, samples are checked for larval mortality.

Assay [2] deals with Tetranychus urticae (Two-Spotted Spider Mite). The experiment in a line: Tetranychus urticae mixed population mortality on sprayed bean leaf discs. The class given is in vivo. The text has this:
Tetranychus urticae (Two-Spotted Spider Mite)
Bean leaf discs on agar in 24-well microtiter plates are sprayed with test solutions (DMSO). After drying, the leaf discs are infested with mite populations of mixed ages. 8 days later, discs are checked for mixed population mortality.

These results are taken from US20130210623A1, “PESTICIDAL MIXTURES INCLUDING ISOXAZOLINE DERIVATIVES” (SYNGENTA CROP PROTECTION LLC, priority 2010, published 2013).

Consider abamectin, for which the “AVERAGE DEAD IN % Abamectin” value in assay [1] (Table 1, Abamectin alone 0.1 ppm AI) came to 0%; in assay [1] (Table 1, Abamectin alone 0.2 ppm AI) it was 0%; in assay [1] (Table 1, Abamectin alone 0.4 ppm AI) it was 10%; in assay [1] (Table 1, Abamectin alone 0.8 ppm AI), 65%; in assay [1] (Table 1, Abamectin alone 1.6 ppm AI) it was 90%; in assay [1] (Table 1, Abamectin alone 3.2 ppm AI), 90%. Further, the “AVERAGE DEAD IN % Abamectin” value in assay [2] (Table 5, Abamectin alone 0.0125 ppm AI, 8 days) was found to be 0%; in assay [2] (Table 5, Abamectin alone 0.025 ppm AI, 8 days) it was 25%; in assay [2] (Table 5, Abamectin alone 0.05 ppm AI, 8 days), 55%; in assay [2] (Table 5, Abamectin alone 0.1 ppm AI, 8 days), 55%; in assay [2] (Table 5, Abamectin alone 0.2 ppm AI, 8 days) it was 60%.

For `CC1(C)[C@H](C(=O)O[C@H](C#N)c2cccc(Oc3ccccc3)c2)[C@@H]1/C=C(\Cl)C(F)(F)F` (racemic) [Lambda Cyhalothrin, lambda-cyhalothrin], the “AVERAGE DEAD IN % Lambda Cyhalothrin” value in assay [1] (Table 2, Lambda Cyhalothrin alone 0.0125 ppm AI) came to 0%; in assay [1] (Table 2, Lambda Cyhalothrin alone 0.025 ppm AI), 0%; in assay [1] (Table 2, Lambda Cyhalothrin alone 0.05 ppm AI), 0%; in assay [1] (Table 2, Lambda Cyhalothrin alone 0.1 ppm AI), 50%; in assay [1] (Table 2, Lambda Cyhalothrin alone 0.2 ppm AI) it was 80%; in assay [1] (Table 2, Lambda Cyhalothrin alone 0.4 ppm AI), 90%. The “AVERAGE DEAD IN % Lambda Cyhalothrin” value in assay [2] (Table 6, Lambda Cyhalothrin alone 6.25 ppm AI, 8 days) turned out to be 0%; in assay [2] (Table 6, Lambda Cyhalothrin alone 12.5 ppm AI, 8 days), 50%; in assay [2] (Table 6, Lambda Cyhalothrin alone 25 ppm AI, 8 days), 90%; in assay [2] (Table 6, Lambda Cyhalothrin alone 50 ppm AI, 8 days) it was 85%.

Turning to `CN/C(=N\[N+](=O)[O-])NCc1cnc(Cl)s1` [Clothianidin, clothianidin], the “AVERAGE DEAD IN % Clothianidin” value in assay [1] (Table 4, Clothianidin alone 1.5 ppm AI) is on record as 0%; in assay [1] (Table 4, Clothianidin alone 3 ppm AI), 0%; in assay [1] (Table 4, Clothianidin alone 6 ppm AI), 25%; in assay [1] (Table 4, Clothianidin alone 12 ppm AI), 50%; in assay [1] (Table 4, Clothianidin alone 24 ppm AI), 85%; in assay [2] (Table 8, Clothianidin alone 50 ppm AI, 8 days), 0%. In addition, the “AVERAGE DEAD IN % Clothianidin” value in assay [2] (Table 8, Clothianidin alone 100 ppm AI, 8 days) was 0%; in assay [2] (Table 8, Clothianidin alone 200 ppm AI, 8 days), 0%; in assay [2] (Table 8, Clothianidin alone 400 ppm AI, 8 days) it was 0%; in assay [2] (Table 8, Clothianidin alone 800 ppm AI, 8 days), 0%.

Turning to `Cc1cc(C2=NO[C@@](c3cc(Cl)cc(Cl)c3)(C(F)(F)F)C2)ccc1C(=O)NCC(=O)NCC(F)(F)F` [I-A2], the “AVERAGE DEAD IN % COMPOUND I-A2” value in assay [1] (Table 1, I-A2 alone 0.025 ppm AI) came out at 0%; in assay [1] (Table 1, I-A2 alone 0.05 ppm AI) it was 0%; in assay [1] (Table 1, I-A2 alone 0.1 ppm AI) it was 5%; in assay [1] (Table 1, I-A2 alone 0.2 ppm AI), 75%; in assay [1] (Table 1, I-A2 alone 0.4 ppm AI) it was 94%; in assay [1] (Table 1, I-A2 alone 0.8 ppm AI) it was 99%. In addition, the “AVERAGE DEAD IN % COMPOUND I-A2” value turned out to be 0% in assay [1] (Table 2, I-A2 alone 0.025 ppm AI); 0% in assay [1] (Table 2, I-A2 alone 0.05 ppm AI); 5% in assay [1] (Table 2, I-A2 alone 0.1 ppm AI); 75% in assay [1] (Table 2, I-A2 alone 0.2 ppm AI); 94% in assay [1] (Table 2, I-A2 alone 0.4 ppm AI); 99% in assay [1] (Table 2, I-A2 alone 0.8 ppm AI). The “AVERAGE DEAD IN % COMPOUND I-A2” value in assay [1] (Table 3, I-A2 alone 0.05 ppm AI) amounted to 0%; in assay [1] (Table 3, I-A2 alone 0.1 ppm AI), 0%; in assay [1] (Table 3, I-A2 alone 0.2 ppm AI) it was 73%; in assay [1] (Table 3, I-A2 alone 0.4 ppm AI), 89%; in assay [1] (Table 3, I-A2 alone 0.8 ppm AI), 98%; in assay [1] (Table 4, I-A2 alone 0.05 ppm AI), 0%. Moreover, the “AVERAGE DEAD IN % COMPOUND I-A2” value came to 0% in assay [1] (Table 4, I-A2 alone 0.1 ppm AI); 73% in assay [1] (Table 4, I-A2 alone 0.2 ppm AI); 89% in assay [1] (Table 4, I-A2 alone 0.4 ppm AI); 98% in assay [1] (Table 4, I-A2 alone 0.8 ppm AI); 17% in assay [2] (Table 5, I-A2 alone 0.1 ppm AI, 8 days); 83% in assay [2] (Table 5, I-A2 alone 0.2 ppm AI, 8 days). Moreover, the “AVERAGE DEAD IN % COMPOUND I-A2” value in assay [2] (Table 5, I-A2 alone 0.4 ppm AI, 8 days) is on record as 100%; in assay [2] (Table 6, I-A2 alone 0.1 ppm AI, 8 days), 17%; in assay [2] (Table 6, I-A2 alone 0.2 ppm AI, 8 days), 83%; in assay [2] (Table 6, I-A2 alone 0.8 ppm AI, 8 days), 100%; in assay [2] (Table 7, I-A2 alone 0.025 ppm AI, 0 * = 0% control assumed since control at the higher rate was also 0%), 0 * %; in assay [2] (Table 7, I-A2 alone 0.05 ppm AI, 0 * = 0% control assumed since control at the higher rate was also 0%) it was 0 * %. The “AVERAGE DEAD IN % COMPOUND I-A2” value in assay [2] (Table 7, I-A2 alone 0.1 ppm AI, 8 days) stood at 0%; in assay [2] (Table 7, I-A2 alone 0.2 ppm AI, 8 days), 85%; in assay [2] (Table 7, I-A2 alone 0.4 ppm AI, 8 days), 95%; in assay [2] (Table 8, I-A2 alone 0.1 ppm AI, 8 days), 0%; in assay [2] (Table 8, I-A2 alone 0.2 ppm AI, 8 days), 85%; in assay [2] (Table 8, I-A2 alone 0.4 ppm AI, 8 days), 95%.

With `CCOC(=O)OC1=C(c2cc(C)ccc2C)C(=O)N[C@]12CC[C@@H](OC)CC2` [Spirotetramat, spirotetramat], the “AVERAGE DEAD IN % Spirotetramat” value in assay [1] (Table 3, Spirotetramat alone 25 ppm AI) was 10%; in assay [1] (Table 3, Spirotetramat alone 50 ppm AI), 0%; in assay [1] (Table 3, Spirotetramat alone 100 ppm AI), 0%; in assay [1] (Table 3, Spirotetramat alone 200 ppm AI), 0%; in assay [1] (Table 3, Spirotetramat alone 400 ppm AI), 15%; in assay [1] (Table 3, Spirotetramat alone 800 ppm AI), 80%. Besides, the “AVERAGE DEAD IN % Spirotetramat” value in assay [2] (Table 7, Spirotetramat alone 12.5 ppm AI, 8 days) is listed as 75%; in assay [2] (Table 7, Spirotetramat alone 25 ppm AI, 8 days) it was 85%; in assay [2] (Table 7, Spirotetramat alone 50 ppm AI, 8 days), 90%; in assay [2] (Table 7, Spirotetramat alone 100 ppm AI, 8 days) it was 90%; in assay [2] (Table 7, Spirotetramat alone 200 ppm AI, 8 days), 90%.
